Key:
[1] = system: CMV promoter in KG-1 Luc cells; assay: CMV promoter analysis by NOMe-Seq: DNA methylation and nucleosome occupancy; assay type: cell-based, human; details: at 5 μM, 24 h
Method: Using the Nucleosome Occupancy and Methylome Sequencing (NOMe-Seq) technique, the methylation status of the CMV promoter and the position of the nucleosomes on such promoter were both analysed.
NOMe-seq is a modified version of the methylation-dependent single promoter assay described by Miranda et al. (Curr Protoc Mol Biol. 2010 21.17.1-16) and the methylase-based DNA assay was performed as previously described with minor modifications (Hochedlinger K, Plath K 2009; Sharma et al. 2010, You et al. 2011, Kelly et al. 2012). After nuclei extraction, GpC methyltransferase (M.CviPI; New England Biolabs) reactions were done in M.CviPI reaction buffer. GpC methyltransferase treatment was followed by DNA extraction, sodium bisulfite conversion, PCR amplification of the region of interest, cloning, and sequencing of individual clones to reveal the structure of single replicas as functional units. After treatment with the compounds or with DMSO, KG-1 Luc cells were centrifuged for 5 min at 500×g. Cell pellets were washed in ice-cold PBS, resuspended in 1 mL of ice-cold nuclei buffer [10 mM Tris (pH 7.4), 10 mM NaCl, 3 mM MgCl2, 0.1 mM EDTA, and 0.5% Nonidet P-40, plus protease inhibitors] per 2×10^6 cells, and incubated on ice for 10 min. […]

[2] = system: P16 expression in colon cancer cells HCT116; assay: P16 reexpression by RT-qPCR; assay type: cell-based, human; details: at 100 nM, at 3 days
[3] = molecular target: T1, human C-terminal DNMT3A (a.a. 623-908) (Homo sapiens, UniProt Q9Y6K1); assay: hDNMT3A restriction-based fluorescence assay; assay type: biochemical; details: read-out: hDNMT 3A inhibition, Inhibition (%)
T1 construct: The human C-terminal DNMT3A (a.a. 623-908); made in house
T1 sequence (Q9Y6K1 627-912): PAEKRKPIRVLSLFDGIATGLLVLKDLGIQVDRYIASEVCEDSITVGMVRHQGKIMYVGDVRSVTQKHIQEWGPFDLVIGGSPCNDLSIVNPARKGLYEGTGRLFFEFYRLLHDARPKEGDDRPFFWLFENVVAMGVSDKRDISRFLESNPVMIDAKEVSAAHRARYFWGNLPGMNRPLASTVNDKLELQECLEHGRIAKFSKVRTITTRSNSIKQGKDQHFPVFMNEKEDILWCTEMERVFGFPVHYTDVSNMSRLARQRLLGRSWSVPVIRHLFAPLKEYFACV
From the text: hDNMT3A enzyme inhibition was adapted from the restriction-based fluorescence assay protocol as described in the literature (Ceccaldi et al. ChemBioChem 2011, 12, 1337-1345). Briefly, a 5′-labelled biotin oligonucleotide is hybridized to its complementary strand labelled with 6-carboxyfluorescein at the 3′-end into a 384 well microplate (black Optiplates; Perkin Elmer) pre-coated with avidin. The duplex contains a unique CpG site overlapping with a restriction site of a methylation sensitive restriction enzyme. The human C-terminal DNMT3A (a.a. 623-908), produced as described in the literature (Gros et al. Nucl. Acids Res. 2013, 41(19):e185), was added in each well (200 ng/well) and mixed with the chemical compounds at desired concentrations and freshly prepared AdoMet (20 μM final concentration) to start the reaction in a total volume of 50 μL. After 1 hour incubation at 37° C. each well were washed three times with PBS, Tween-20 0.05%, NaCl (500 mM) and three more times with PBST. Specific fluorescent signals were detected with the methylation-sensitive restriction enzyme HpyCH4IV (NEB) as described and measured on a Perkin Elmer Envision detector. The percentage of inhibition is reported. The formula used to calculate the percentage of inhibition is [(X−Y)/X]×100, where X is the signal determined in the absence of the inhibitor and Y is the signal obtained in the presence of the inhibitor. The concentration at which 50% of efficacy of inhibition is observed (EC50) was determined by analysis of a concentration range of the tested compound in triplicates. The non-linear regression fittings with sigmoidal dose-response (variable slope) were performed with GraphPad Prism 4.03 (GraphPad Software).

COc1ccc2cc1Oc1ccc(cc1)C[C@@H]1NCCc3cc(OC)c4c(c31)Oc1cc3c(cc1O4)CCN(C)[C@H]3C2 [Compound 1, Trilobine]
Chromatin accessibility, KG1 CMV-Luc model [1]: 1.9 ± 0.1
DNA demethylation, KG1 CMV-Luc model [1]: −37 ± 8%
Rexpression (RT qPCR) P16/HCT116 expression fold to non-treated cells [2]: 5.0 ± 2.14 fold
inhibition at 10 µM ([3]; 10 μM): 78%
inhibition at 32 µM ([3]; 32 μM): 94%

— US10517863B2, “Trilobine and its natural analogs for use as a drug” (PIERRE FABRE MEDICAMENT, priority 2015, dated 2019)
